ChEMBL document CHEMBL1128809 (Bioorg Med Chem Lett, 1995)

Tests used:
[1] = molecular target: T1, Protein kinase C beta type (Homo sapiens, UniProt P05771); experiment: Inhibition of Protein kinase C beta 1
[2] = molecular target: Protein kinase C delta type (Homo sapiens, UniProt Q05655); experiment: Inhibition of Protein kinase C delta
[3] = molecular target: Protein kinase C gamma type (Homo sapiens, UniProt P05129); experiment: Inhibition of Protein kinase C gamma
[4] = molecular target: Protein kinase C alpha type (Homo sapiens, UniProt P17252); experiment: Inhibition of Protein kinase C alpha
[5] = molecular target: Protein kinase C eta type (Homo sapiens, UniProt P24723); experiment: Inhibition of Protein kinase C eta
[6] = molecular target: T1, Protein kinase C beta type; experiment: Inhibition of Protein kinase C beta 2
[7] = molecular target: T2, Protein kinase C epsilon type (Homo sapiens, UniProt Q02156); experiment: Inhibition of Protein kinase C epsilon
T2 sequence (Q02156 whole entry): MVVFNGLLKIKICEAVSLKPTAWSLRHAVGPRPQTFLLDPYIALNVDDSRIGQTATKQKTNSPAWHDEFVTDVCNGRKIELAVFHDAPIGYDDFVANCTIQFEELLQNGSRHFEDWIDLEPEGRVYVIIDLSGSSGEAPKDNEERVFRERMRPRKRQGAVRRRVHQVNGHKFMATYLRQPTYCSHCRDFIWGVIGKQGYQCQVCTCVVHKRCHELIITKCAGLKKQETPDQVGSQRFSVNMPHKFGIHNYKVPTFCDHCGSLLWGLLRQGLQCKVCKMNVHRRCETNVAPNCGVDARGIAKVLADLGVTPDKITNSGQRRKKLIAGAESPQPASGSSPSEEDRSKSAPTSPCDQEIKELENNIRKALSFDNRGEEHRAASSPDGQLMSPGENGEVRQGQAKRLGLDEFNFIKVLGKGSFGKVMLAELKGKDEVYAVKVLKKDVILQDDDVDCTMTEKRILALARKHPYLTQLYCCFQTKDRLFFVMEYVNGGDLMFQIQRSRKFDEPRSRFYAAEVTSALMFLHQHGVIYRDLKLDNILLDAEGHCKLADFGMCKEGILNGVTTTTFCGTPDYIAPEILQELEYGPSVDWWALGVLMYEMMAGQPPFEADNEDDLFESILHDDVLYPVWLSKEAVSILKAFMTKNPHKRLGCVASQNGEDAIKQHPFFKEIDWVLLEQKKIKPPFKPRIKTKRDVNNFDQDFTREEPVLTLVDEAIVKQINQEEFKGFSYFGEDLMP

[8] = molecular target: T3, Protein kinase C zeta type (Homo sapiens, UniProt Q05513); experiment: Inhibition of Protein kinase C zeta
T3 sequence (Q05513 whole entry): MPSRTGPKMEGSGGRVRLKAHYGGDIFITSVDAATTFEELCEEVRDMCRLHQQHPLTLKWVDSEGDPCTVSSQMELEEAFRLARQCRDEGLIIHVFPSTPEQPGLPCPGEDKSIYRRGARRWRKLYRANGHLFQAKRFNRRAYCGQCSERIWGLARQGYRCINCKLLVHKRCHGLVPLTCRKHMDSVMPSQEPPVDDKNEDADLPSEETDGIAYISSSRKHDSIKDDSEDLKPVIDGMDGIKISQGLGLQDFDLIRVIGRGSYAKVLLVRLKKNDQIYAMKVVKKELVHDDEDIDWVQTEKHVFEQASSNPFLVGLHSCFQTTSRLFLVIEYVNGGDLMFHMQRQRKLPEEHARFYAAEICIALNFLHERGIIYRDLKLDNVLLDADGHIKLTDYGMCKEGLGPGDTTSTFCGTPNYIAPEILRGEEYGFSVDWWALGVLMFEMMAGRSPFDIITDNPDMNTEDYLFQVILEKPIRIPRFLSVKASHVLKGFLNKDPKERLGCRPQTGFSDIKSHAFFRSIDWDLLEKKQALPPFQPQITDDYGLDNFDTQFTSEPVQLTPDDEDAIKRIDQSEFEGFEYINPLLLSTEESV

[9] = Stability in human plasma 2 hr after incubation expressed as percent concentration; assay type: ADME, cell-free; conditions: read-out: Concentration
[10] = Stability in human plasma 4 hr after incubation expressed as percent concentration; assay type: ADME, cell-free; conditions: read-out: Concentration

Protein kinase C delta type, sequence (Q05655 whole entry): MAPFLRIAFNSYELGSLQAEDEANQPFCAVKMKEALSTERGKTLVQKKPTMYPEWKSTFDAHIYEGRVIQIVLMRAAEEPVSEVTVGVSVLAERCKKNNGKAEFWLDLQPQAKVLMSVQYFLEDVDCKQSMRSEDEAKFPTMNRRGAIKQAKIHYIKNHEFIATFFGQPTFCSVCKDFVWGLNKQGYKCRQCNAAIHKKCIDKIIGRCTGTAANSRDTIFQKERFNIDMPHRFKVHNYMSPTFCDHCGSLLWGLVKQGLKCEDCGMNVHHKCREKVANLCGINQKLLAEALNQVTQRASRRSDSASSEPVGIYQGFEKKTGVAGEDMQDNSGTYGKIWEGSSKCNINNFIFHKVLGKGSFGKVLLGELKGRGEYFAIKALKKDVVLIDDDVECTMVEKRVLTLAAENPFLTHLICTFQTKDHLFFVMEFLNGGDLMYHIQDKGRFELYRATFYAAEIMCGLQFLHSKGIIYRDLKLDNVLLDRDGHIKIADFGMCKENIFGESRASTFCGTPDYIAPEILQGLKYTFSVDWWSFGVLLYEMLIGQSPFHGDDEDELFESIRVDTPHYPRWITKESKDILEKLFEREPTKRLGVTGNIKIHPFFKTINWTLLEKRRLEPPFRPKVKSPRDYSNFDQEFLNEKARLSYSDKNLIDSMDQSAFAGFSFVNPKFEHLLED
T1 sequence (P05771 whole entry): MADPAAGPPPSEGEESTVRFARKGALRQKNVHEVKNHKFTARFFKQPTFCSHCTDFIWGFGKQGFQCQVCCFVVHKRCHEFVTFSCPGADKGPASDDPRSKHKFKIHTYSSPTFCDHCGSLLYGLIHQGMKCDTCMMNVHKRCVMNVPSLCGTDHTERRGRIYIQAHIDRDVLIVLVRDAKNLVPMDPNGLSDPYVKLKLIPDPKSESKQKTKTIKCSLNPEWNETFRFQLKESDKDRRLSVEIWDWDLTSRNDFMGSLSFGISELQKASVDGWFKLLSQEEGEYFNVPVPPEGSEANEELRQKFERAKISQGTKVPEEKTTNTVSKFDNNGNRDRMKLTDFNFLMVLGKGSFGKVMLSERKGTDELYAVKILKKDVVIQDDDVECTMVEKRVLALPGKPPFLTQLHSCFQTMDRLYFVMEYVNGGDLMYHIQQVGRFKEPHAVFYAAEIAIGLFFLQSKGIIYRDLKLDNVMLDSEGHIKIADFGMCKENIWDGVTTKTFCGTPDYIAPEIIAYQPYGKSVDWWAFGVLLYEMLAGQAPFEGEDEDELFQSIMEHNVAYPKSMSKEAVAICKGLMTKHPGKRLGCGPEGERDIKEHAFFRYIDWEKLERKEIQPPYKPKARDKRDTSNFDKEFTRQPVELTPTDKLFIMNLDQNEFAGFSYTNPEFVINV
Protein kinase C eta type, sequence (P24723 whole entry): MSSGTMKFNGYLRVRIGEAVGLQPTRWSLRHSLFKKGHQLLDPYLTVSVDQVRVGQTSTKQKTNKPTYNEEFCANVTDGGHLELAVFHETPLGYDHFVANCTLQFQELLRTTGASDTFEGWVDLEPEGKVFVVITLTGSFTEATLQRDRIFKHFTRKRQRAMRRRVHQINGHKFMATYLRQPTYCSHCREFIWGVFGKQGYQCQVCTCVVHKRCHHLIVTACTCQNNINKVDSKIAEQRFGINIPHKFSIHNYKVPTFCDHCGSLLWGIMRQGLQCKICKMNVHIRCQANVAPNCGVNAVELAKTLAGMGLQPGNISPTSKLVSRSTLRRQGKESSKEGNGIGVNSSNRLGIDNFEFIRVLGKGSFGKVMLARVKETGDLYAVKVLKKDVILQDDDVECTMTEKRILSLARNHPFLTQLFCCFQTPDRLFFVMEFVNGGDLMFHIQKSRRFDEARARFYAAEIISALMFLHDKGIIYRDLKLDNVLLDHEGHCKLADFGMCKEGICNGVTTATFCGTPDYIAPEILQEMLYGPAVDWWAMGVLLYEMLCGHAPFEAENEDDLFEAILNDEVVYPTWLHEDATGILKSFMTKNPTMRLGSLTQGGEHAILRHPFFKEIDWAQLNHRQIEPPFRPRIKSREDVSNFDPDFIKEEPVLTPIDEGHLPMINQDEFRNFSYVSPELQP

IC50 [1] [nM] | IC50 [2] [nM] | IC50 [3] [nM] | IC50 [4] [nM] | IC50 [5] [nM] | IC50 [6] [nM] | IC50 [7] [nM] | IC50 [8] [nM] | remaining at 2 h [9] [%] | remaining at 4 h [10] [%] | Compound
> 50000 | 42000 | > 50000 | > 50000 | 31000 | > 50000 | > 50000 | > 50000 | – | – | CN(C(=O)c1cc(O)c(C(=O)c2c(O)cccc2C(=O)O)c(O)c1)[C@H]1CCCNC[C@H]1NC(=O)c1ccc(O)cc1
120 | 30 | 40 | 220 | 20 | 70 | 50 | – | – | – | C[C@@]1(OC(=O)c2cc(O)c(C(=O)c3c(O)cccc3C(=O)O)c(O)c2)CCCNC[C@H]1NC(=O)c1ccc(O)cc1
30 | 23 | 30 | 67 | 20 | 30 | – | – | – | – | O=C(N[C@@H]1CNCCC[C@H]1OC(=O)c1cc(O)c(C(=O)c2c(O)cccc2C(=O)O)c(O)c1)c1ccc(O)cc1 (racemic) [BALANOL]
10 | 16 | 10 | 30 | 3 | 10 | – | 5900 | – | – | O=C(N[C@@H]1CNCCC[C@H]1OC(=O)c1cc(O)c(C(=O)c2c(O)cccc2C(=O)O)c(O)c1)c1ccc(O)cc1 [BALANOL]

The remaining lines, values behind:

Compound | IC50 [1] [nM] | IC50 [2] [nM] | IC50 [3] [nM] | IC50 [4] [nM] | IC50 [5] [nM] | IC50 [6] [nM] | IC50 [7] [nM] | IC50 [8] [nM] | remaining at 2 h [9] [%] | remaining at 4 h [10] [%]
O=C(NC[C@@H]1CCC[C@H]1NC(=O)c1ccc(O)cc1)c1cc(O)c(C(=O)c2c(O)cccc2C(=O)O)c(O)c1 | 17000 | 330 | 46000 | 35000 | 2300 | 4900 | > 50000 | > 50000 | – | –
O=C(N[C@@H]1CCC[C@H]1OCc1cc(O)c(C(=O)c2c(O)cccc2C(=O)O)c(O)c1)c1ccc(O)cc1 | 430 | 20 | 1100 | 460 | 30 | 290 | 370 | > 50000 | 100 | 100
O=C(N[C@@H]1CCC[C@H]1OC(=O)c1cc(O)c(C(=O)c2c(O)cccc2C(=O)O)c(O)c1)c1ccc(O)cc1 | – | 1 | – | – | 1 | – | – | – | – | –
O=C(N[C@@H]1CNC[C@H]1NC(=O)c1cc(O)c(C(=O)c2c(O)cccc2C(=O)O)c(O)c1)c1ccc(O)cc1 | 220 | 12 | 330 | 920 | 3 | 330 | 80 | 9600 | 95 | 104
O=C(N[C@@H]1CCCNC[C@H]1NC(=O)c1ccc(O)cc1)c1cc(O)c(C(=O)c2c(O)cccc2C(=O)O)c(O)c1 | 630 | 220 | 420 | 3200 | 50 | 1200 | 670 | > 50000 | – | –
O=C(N[C@@H]1CNC[C@H]1OC(=O)c1cc(O)c(C(=O)c2c(O)cccc2C(=O)O)c(O)c1)c1ccc(O)cc1 | 10 | – | 12 | – | – | – | – | 6800 | 88 | 103
O=C(N[C@@H]1CCC[C@H]1COC(=O)c1cc(O)c(C(=O)c2c(O)cccc2C(=O)O)c(O)c1)c1ccc(O)cc1 | 40 | 20 | 300 | 40 | 20 | 30 | 340 | > 50000 | – | –
